Here are results for one compound from US11541056B2, “3-hydroxy-N-(3-(7H-pyrrolo[2,3-d]pyrimidin-4-yl)phenyl)pyrrolidine-1-carboxamide derivatives” (NOVARTIS AG, priority 2018, dated 2023).

In one assay the target is T1, BTK(C481S)-GFP (Homo sapiens, UniProt Q06187+Q96SW2, C481S).
T1 construct: with a mutagenesis reaction on pENTR221-BTK (STOP-Leu); CHYSEL (cis-acting hydrolase element, 2A) remnant after GFP; mCherry is split off as a separate protein (C); expressed in transfected cells; host or cells: TMD8 cells, lentiviral transduction with pLenti6-BTK(C481S)-GFP-CHYSEL-mCherry
The experiment in a line: BTK(C481S)-GFP protein abundance flow cytometry assay in TMD8 cells. Format: cell-based. The procedure:
Compounds of the invention were tested in the following cellular assays. The terms in Table 1 are defined as follows: DC50 refers to the concentration at which 50% maximal degradation was observed; deg Amax is the extent of degradation and the value refers to the % protein remaining at the concentration at which maximum degradation is seen; Prol GI50 refers to the proliferation data and defines the concentration at which 50% growth inhibition was observed compared to the vehicle treated control at the end of the incubation time. TMD8 cells are BTK dependent and OCI-LY3 cells are BTK independent.
BTK(C481S)-GFP Protein Abundance Flow Cytometry Assay in TMD8 Cells:
Degradation of BTK(C481S) was measured in TMD8 cells expressing BTK(C481S)-GFP and mCherry from a stably integrated second generation bicistronic BTK(C481S)-GFP-CHYSEL-mCherry construct. Reduction of the GFP signal measured by flow cytometry served as readout for BTK(C481S) degradation after degrader treatment.
For orientation: A flow cytometer gives signals particle by particle.

For the next assay, the system named is OCI-LY3 cells. The experiment in a line: Resazurin cell viability assay in DLBCL cells (OCI-LY3). To be noted: Homo sapiens, OCI-Ly3, 72 h, OCI-LY3 cells (BTK independent), 50% growth inhibition, read-out: OCI-LY3 Prol GI50. Format: cell-based. The procedure, abridged: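 BTK-independent OCI-LY3 cells were treated 72 h at 37° C/5% CO2 with an 8-point 1:4 series from 10 μM, in triplicate, versus DMSO. Viability was read by resazurin (13 μg/ml final, 2 h) fluorescence at 530/600 nm. GI50 was curve-fitted, typically from ≥2 independent experiments.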
On the technique in general: The colour change of resazurin is a common sign of viable cells or microbes.

One may read the DC50 as the midpoint of the concentration-degradation curve. A word on the GI50: it is the concentration at which growth is held to half of that of the control.

T1 sequence (Q06187 whole entry C481S): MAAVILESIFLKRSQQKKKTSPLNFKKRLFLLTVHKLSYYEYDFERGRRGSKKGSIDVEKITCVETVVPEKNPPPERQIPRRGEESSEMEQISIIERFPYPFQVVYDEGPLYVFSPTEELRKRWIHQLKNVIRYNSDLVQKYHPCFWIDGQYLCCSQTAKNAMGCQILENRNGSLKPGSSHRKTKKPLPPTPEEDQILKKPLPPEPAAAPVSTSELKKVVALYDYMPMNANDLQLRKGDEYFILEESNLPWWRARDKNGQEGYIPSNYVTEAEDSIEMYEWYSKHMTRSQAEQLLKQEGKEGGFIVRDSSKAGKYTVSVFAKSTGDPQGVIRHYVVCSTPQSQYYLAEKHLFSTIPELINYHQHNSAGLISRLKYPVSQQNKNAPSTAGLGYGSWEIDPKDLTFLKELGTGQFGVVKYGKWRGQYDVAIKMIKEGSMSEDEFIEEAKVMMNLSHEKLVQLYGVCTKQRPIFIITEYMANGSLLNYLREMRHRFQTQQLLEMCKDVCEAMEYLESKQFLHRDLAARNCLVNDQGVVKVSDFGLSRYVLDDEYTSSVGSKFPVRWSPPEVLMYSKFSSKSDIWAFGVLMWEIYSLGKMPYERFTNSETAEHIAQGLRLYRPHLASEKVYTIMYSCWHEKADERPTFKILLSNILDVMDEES
T1 sequence (Q96SW2 whole entry): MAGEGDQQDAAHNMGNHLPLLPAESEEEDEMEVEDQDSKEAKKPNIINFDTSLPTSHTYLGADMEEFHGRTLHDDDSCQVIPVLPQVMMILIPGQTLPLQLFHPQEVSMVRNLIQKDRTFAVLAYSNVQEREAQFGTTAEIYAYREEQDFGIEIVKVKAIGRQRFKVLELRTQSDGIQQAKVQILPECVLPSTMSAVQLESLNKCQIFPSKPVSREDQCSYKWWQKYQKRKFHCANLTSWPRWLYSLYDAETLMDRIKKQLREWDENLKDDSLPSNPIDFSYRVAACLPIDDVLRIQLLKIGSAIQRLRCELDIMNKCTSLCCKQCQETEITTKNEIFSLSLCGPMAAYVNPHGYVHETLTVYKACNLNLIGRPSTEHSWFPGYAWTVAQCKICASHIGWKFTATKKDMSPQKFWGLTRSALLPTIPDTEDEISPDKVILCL
T1 sequence (Q16531 whole entry partner): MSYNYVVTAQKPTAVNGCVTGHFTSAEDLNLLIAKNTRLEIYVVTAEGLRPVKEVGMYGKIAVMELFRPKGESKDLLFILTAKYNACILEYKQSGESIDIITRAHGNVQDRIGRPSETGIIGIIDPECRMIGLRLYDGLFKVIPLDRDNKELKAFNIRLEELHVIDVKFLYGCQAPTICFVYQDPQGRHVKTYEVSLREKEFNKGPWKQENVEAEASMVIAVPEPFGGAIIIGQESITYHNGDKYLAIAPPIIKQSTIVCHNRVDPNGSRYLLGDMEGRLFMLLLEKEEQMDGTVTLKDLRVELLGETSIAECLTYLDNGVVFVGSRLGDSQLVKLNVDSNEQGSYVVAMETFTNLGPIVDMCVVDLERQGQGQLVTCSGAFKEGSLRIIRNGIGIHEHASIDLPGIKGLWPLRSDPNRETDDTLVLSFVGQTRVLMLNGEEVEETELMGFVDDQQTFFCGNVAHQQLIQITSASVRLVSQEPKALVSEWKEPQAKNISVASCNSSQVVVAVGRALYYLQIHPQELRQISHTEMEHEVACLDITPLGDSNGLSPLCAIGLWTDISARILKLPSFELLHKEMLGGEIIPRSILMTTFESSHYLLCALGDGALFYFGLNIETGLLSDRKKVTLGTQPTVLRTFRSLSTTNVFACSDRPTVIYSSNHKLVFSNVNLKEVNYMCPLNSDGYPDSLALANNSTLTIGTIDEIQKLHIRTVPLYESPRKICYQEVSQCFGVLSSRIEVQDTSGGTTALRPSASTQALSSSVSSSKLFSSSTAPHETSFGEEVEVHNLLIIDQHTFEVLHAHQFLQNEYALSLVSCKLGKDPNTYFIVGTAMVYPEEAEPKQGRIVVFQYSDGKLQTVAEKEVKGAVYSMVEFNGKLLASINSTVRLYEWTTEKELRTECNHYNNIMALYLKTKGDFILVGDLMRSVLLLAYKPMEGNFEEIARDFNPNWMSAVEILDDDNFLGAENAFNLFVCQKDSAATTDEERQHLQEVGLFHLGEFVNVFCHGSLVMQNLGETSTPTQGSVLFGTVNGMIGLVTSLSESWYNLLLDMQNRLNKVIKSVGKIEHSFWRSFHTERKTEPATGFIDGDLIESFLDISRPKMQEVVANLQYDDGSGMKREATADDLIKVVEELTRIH

For `COc1ccc(C(=O)N2CCC(CCN3CCC(OCc4ccc(-c5cc6c(-c7cc(F)cc(NC(=O)N8C[C@H](CC(C)C)[C@@H](O)C8)c7C)ncnc6[nH]5)cc4)CC3)CC2)cc1N1CCC(=O)NC1=O` [Compound 22, (3R,4S)—N-(3-(6-(4-(((1-(2-(1-(3-(2,4-Dioxotetrahydropyrimidin-1 (2H)-yl)-4-methoxybenzoyl)piperidin-4-yl)ethyl)piperidin-4-yl)oxy)methyl)phenyl)-7H-pyrrolo[2,3-d]pyrimidin-4-yl)-5-fluoro-2-methylphenyl)-3-hydroxy-4-isobutylpyrrolidine-1-carboxamide], at BTK(C481S)-GFP (% protein remaining at concentration of maximum degradation), the “BTK (C481S) Amax %” value stood at 2.1%. For the same compound, the DC50 at BTK(C481S)-GFP (concentration at which 50% maximal degradation was observed) came to 0.0004 µM. Also, in the assay on OCI-LY3 cells, the GI50 was 6.68 µM.
